# Test results published in article PMC5497784 (Cell metabolism, 2017).
# Biological target: IRE1α (Homo sapiens, UniProt O75460)
# Assay: fluorescent XBP1 mini-substrate RNase assay with recombinant IRE1α*
# Format: biochemical
# Chain of IRE1α (O75460 469-977): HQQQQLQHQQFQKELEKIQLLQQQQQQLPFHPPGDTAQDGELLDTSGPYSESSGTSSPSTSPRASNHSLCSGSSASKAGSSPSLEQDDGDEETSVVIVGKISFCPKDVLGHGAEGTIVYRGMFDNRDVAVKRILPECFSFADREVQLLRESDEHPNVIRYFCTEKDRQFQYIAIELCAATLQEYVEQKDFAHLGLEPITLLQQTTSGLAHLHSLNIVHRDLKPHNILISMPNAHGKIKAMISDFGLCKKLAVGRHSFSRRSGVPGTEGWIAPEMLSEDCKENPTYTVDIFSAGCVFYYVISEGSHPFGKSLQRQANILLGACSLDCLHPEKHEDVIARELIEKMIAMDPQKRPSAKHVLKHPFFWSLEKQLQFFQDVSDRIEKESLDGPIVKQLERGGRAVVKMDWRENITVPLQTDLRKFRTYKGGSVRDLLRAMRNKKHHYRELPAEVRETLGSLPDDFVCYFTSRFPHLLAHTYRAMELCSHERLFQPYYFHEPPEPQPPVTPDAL
structure (smiles),measurement,value
"CC(C)(C)c1nc(-c2ccc(NC(=O)Nc3cccc(C(F)(F)F)c3)c3ccccc23)c2c(N)nccn12 [KIRA6, 1-(4-(8-amino-3-tert-butylimidazo[1,5-a]pyrazin-1-yl)naphthalen-1-yl)-3-(3-(trifluoromethyl)phenyl)urea]",IC50,40.1 nM
